Experimental findings from patent US20100240754A1, “UNSATURATED FATTY AMINO ACID DERIVATIVES AND USE THEREOF IN DERMAL COSMETOLOGY” (Pierre Fabre Demo-Cosmetique, priority 2007, published 2010) are described below.

Assay type in all cases: cell-based, murine
Assay [1] concerns fibroblast cell line L929. Kind of assay: In vitro assay of intracellular OASes (H2DCF-DA probe) after H2O2/iron oxidative stress. To be noted: dose 400 μg/mL; L929, H2O2/iron stress. An excerpt:
We have set up a model for an in vitro study of oxidative stress induced by H2O2/iron, H2O2 which massively generates intracellular OASes by a chain reaction triggered by the oxidation of membrane lipids.
This technique is based on the use of a fluorescent probe, 6-carboxy-2′, 7′ dichlorodihydrofluorescein diacetate, di(acetoxymethyl ester) (H2DCF-DA), which, once it has penetrated the cell, is deacetylated by the intracellular esterases then forming H2DCF. This product is oxidized by intracellular OASes into a highly fluorescent compound: 2′,7′-dichlorofluorescein, (DCF) (Suematsu M et al, 1996, Free Radicals Practical Approach, Punchard ed. P83-99).
Cutaneous murine fibroblast cell line L929.
The tested concentrations are non-cytotoxic concentrations. Cytoxicity was evaluated by the neutral red method, after incubation of the product for 3 hours.
The reference anti-radical product is vitamin E or α-tocopherol (MW: 430.7) (SIGMA, ref.: T-1539).
The mother solution is prepared at 400 mg/mL in DMSO and stored at −20° C. The pretreatment solution is prepared extemporaneously at 400 μg/mL in a culture medium without FCS.
For evaluating unsaturated fatty amino acid derivatives, the dilutions are prepared in the culture medium extemporaneously for a range of concentrations of 0.02, 0.2, 2 and 20 ng/mL.
The cells of the fibroblast line L929 are sown in microplates with 96 wells with a flat bottom in 100 μL of DMEM supplemented with 10% of FCS, and they are then incubated overnight at 37° C. in a humid atmosphere with 5% CO2.
The dilutions of the products to be tested and of the reference molecule are conducted in culture mediums without FCS, and then deposited in 7 wells in an amount of 100 μL per well.
The cells are then incubated for 3 hours at 37° C. in a humid atmosphere with 5% CO2.
The cells are rinsed with PBS 1× in an amount of 100 μL per well. Next they are set to incubate for 30 min at 37° C. in a humid atmosphere with 5% CO2 and with 50 μL of H2DCF-DA probe at 5 μM.
After 30 min in contact with the probe alone, the cells are incubated for 30 min at 37° C. in a humid atmosphere with […] with addition of 25 μL of H2O2 at 800 μM and 25 μL of 8 mM ferrous and ferric iron solution, in order to have final concentrations of 200 μM of H2O2 and 2 mM of ferrous and ferric iron.
The cells are then rinsed with PBS 1× in an amount of 100 μL per well, and then incubated for 30 min at 37° C. in a humid atmosphere with 5% CO2 and with 100 μL of PBS 1×.
These 1 h 30 minutes of incubation at 37° C. allow the intracellular esterases to deacetylate the H2DCF probe, oxidizable by intracellular OASes into DCF; a fluorescent compound, the formation of which is proportional to the amount of intracellular OASes.
The fluorescence intensity is read with the cytofluorimeter at λexcitation=485 nm and λemission=530 nm. It reflects the amount of produced intracellular OASes.
With the below ratio, it is possible to calculate for each concentration of tested product the % of protection against production of intracellular OASes (since the fluorescence intensity or FI expresses intracellular release of OASes).
The values indicated in Table 3 are percentages of inhibition of intracellular OAS production following an exogenous oxidative stress, relatively to <> cells (100%) and to <> cells (0%).

For assay [2], the system named is fibroblast line L929. Kind of assay: Test of TBARS: lipid peroxidation after H2O2-Fe2+/Fe3+ stress. To be noted: 400 μg/mL.
In assay [3] the test system is B16-F10 line. In words: Synthesis of melanin, colorimetric assay, basal and after alpha MSH stimulation. To be noted: Mus musculus, alpha MSH-stimulated B16-F10, read-out: inhibition of melanogenesis. The procedure:
6.1) The modulating effect of unsaturated fatty amino-acid derivatives on melanogenesis was analyzed. For this, a measurement of the synthesis of melanin by a colorimetric assay is carried out on a cell line of murine melanomas: the B16-F10 line.
The effect of the products is investigated in a basal situation and after stimulating melanogenesis by a MSH for determining the depigmenting power.
The level of extracellular and intracellular melanin is then measured by spectrophotometry at a wave length of 405 nm according to the procedure (Meun, Y. J. et al.). The amount of pigment is determined by a standard range of melanin and by analysis on the Microwin software package (Berthold Biotechnologies). An assay of total proteins is conducted for samples of intracellular melanin by the BCA-Copper method at 540 nm. The standard range is produced with a standard protein, BSA (Bovine Albumin Serum).

As to `Cc1c(C)c2c(c(C)c1O)CC[C@@](C)(CCC[C@H](C)CCC[C@H](C)CCCC(C)C)O2` [Vitamin E, α-tocopherol, reference compound], the “percentage of inhibition of intracellular OAS production (protection)” value in assay [1] stood at 31%. Besides, the “protection against lipid peroxidation, in words” value in assay [2] is recorded as “very effectively protects cell membranes”. As a reminder, the inhibition is the share of the control response that was lost under treatment. With `Oc1ccc(O)cc1` [hydroquinone, reference compound], the inhibition at 1 µg/mL in assay [3] (1 μg/mL) was roughly 60%. For `O=C1O[C@H]([C@@H](O)CO)C(O)=C1O` [vitamin C, reference compound], in assay [3] (40 μg/mL), the inhibition at 40 µg/mL was roughly 60%.
